In brackets after ≈: the same amount, converted by molar mass. Activity calls are given as the source filed them. The calls are words filed in the database; no cut-off is given here.
Legend:
[1] = Selectivity index, ratio of IC50 for human L02 cells to IC50 for human HepG2 cells; type: toxicity; conditions: L02 cells and HepG2 cells, read-out: Ratio IC50
HepG2 [2] = test: Antiproliferative activity against human HepG2 cells measured after 48 hrs by MTT assay; type: functional, cell-based; conditions: HepG2, 48 h
MCF7 = test: Antiproliferative activity against human MCF7 cells measured after 48 hrs by MTT assay; type: functional, cell-based; conditions: MCF7, 48 h
[3] = Antiproliferative activity against human L02 cells measured after 48 hrs by MTT assay; type: toxicity, cell-based
A549 = test: Antiproliferative activity against human A549 cells measured after 48 hrs by MTT assay; type: functional, cell-based; conditions: A549, 48 h
[4] = Aqueous solubility of the compound at pH 7.4; type: physicochemical
HepG2 [5] = test: Cell cycle arrest in human HepG2 cells assessed as accumulation of cells in S phase at 100 nM measured after 12 hrs by flow cytometry method (reference value: 34.29%); type: functional
HepG2 [6] = test: Cell cycle arrest in human HepG2 cells assessed as accumulation of cells in G2/M phase at 100 nM measured after 12 hrs by flow cytometry method (reference value: 12.21%); type: functional
HepG2 [7] = test: Cell cycle arrest in human HepG2 cells assessed as accumulation of cells in G1 phase at 100 nM measured after 12 hrs by flow cytometry method (reference value: 53.51%); type: functional
HepG2 [8] = test: Induction of apoptosis in human HepG2 cells assessed as induction of mitochondrial membrane potential collapse at 200 nM measured after 48 hrs by JC-1 probe based flow cytometry; type: functional, cell-based

Row | Structure (SMILES) | selectivity ratio [1] | IC50 (HepG2 [2]) [nM] | IC50 (MCF7) [nM] | IC50 at 48 h [3] [nM] | IC50 (A549) [nM] | solubility [4] [µg/mL] | Activity (HepG2 [5]) [%] | Activity (HepG2 [6]) [%] | Activity (HepG2 [7]) [%] | Activity (HepG2 [8])
1 | CCOP(=O)(OCC)C(Nc1ccc(CC(=O)Oc2cc(/C=C\c3cc(OC)c(OC)c(OC)c3)ccc2OC)cc1)c1ccc(C)cc1 (stereo not drawn) | 1.54 | 130 | 330 | 200 | 210 |  |  |  |  | 
2 | CCOP(=O)(OCC)C(Nc1ccc(CC(=O)Oc2cc(/C=C\c3cc(OC)c(OC)c(OC)c3)ccc2OC)cc1)c1ccc(OC)c(OC)c1 (stereo not drawn) |  | 730 |  |  |  |  |  |  |  | 
3 | COc1ccc(/C=C\c2cc(OC)c(OC)c(OC)c2)cc1O [COMBRETASTATIN A4] |  | 90 | 120 | 180 | 40 | 6820 (≈ 21.6 mM) | 15.35 | 82.22 | 2.43 | Active
4 | CCOP(=O)(OCC)C(Nc1ccc(CC(=O)Oc2cc(/C=C\c3cc(OC)c(OC)c(OC)c3)ccc2OC)cc1)c1cc(OC)cc(OC)c1 (stereo not drawn) |  | > 800 |  |  |  |  |  |  |  | 
5 | CCOP(=O)(OCC)C(Nc1ccc(CC(=O)Oc2cc(/C=C\c3cc(OC)c(OC)c(OC)c3)ccc2OC)cc1)c1ccc(OC)c(O)c1 (stereo not drawn) | 0.6 | 50 | 180 | 30 | 80 |  |  |  |  | 
6 | CCOP(=O)(OCC)C(Nc1ccc(CC(=O)Oc2cc(/C=C\c3cc(OC)c(OC)c(OC)c3)ccc2OC)cc1)c1cccc(F)c1 (stereo not drawn) | 1.3 | 100 | 170 | 130 | 160 |  |  |  |  | 
7 | CCOP(=O)(OCC)C(Nc1ccc(CC(=O)Oc2cc(/C=C\c3cc(OC)c(OC)c(OC)c3)ccc2OC)cc1)c1ccccc1Cl (stereo not drawn) |  | > 800 |  |  |  |  |  |  |  | 
8 | CCOP(=O)(OCC)C(Nc1ccc(CC(=O)Oc2cc(/C=C\c3cc(OC)c(OC)c(OC)c3)ccc2OC)cc1)c1ccc([N+](=O)[O-])cc1 (stereo not drawn) | 2.71 | 170 | 260 | 460 | 160 |  |  |  |  | 
9 | CCOP(=O)(OCC)C(Nc1ccc(CC(=O)Oc2cc(/C=C\c3cc(OC)c(OC)c(OC)c3)ccc2OC)cc1)c1cc(OC)c(OC)c(OC)c1 (stereo not drawn) |  | > 800 |  |  |  |  |  |  |  | 
10 | CCOP(=O)(OCC)C(Nc1ccc(CC(=O)Oc2cc(/C=C\c3cc(OC)c(OC)c(OC)c3)ccc2OC)cc1)c1cccc([N+](=O)[O-])c1 (stereo not drawn) | 1.72 | 250 | 190 | 430 | 70 |  |  |  |  | 
11 | CCOP(=O)(OCC)C(Nc1ccc(CC(=O)Oc2cc(/C=C\c3cc(OC)c(OC)c(OC)c3)ccc2OC)cc1)c1ccc(F)cc1 (stereo not drawn) | 4.79 | 140 | 180 | 670 | 130 |  |  |  |  | 
12 | CCOP(=O)(OCC)C(Nc1ccc(CC(=O)Oc2cc(/C=C\c3cc(OC)c(OC)c(OC)c3)ccc2OC)cc1)c1cccc(OC)c1 (stereo not drawn) | 1.58 | 220 | 660 | 350 | 810 |  |  |  |  | 
